According to patent US20110136766A1, “AURORA KINASE INHIBITORS” (Vitae Pharmaceuticals, Inc., priority 2008, published 2011):

How the values were obtained:
[1] = biological target: T1, full-length human Aurora A (Homo sapiens, UniProt O14965); test: Aurora A phosphocellulose filter binding kinase activity assay; type: biochemical; settings: 11 nM Aurora A, 10 μM ATP, 50 μM Kemptide, 45 min; read-out: Aur-A IC50
T1 construct: The full-length human Aurora A carrying His6 tag at the N-terminus; His6 (N); purchased Invitrogen, Carlsbad, Calif
T1 sequence (O14965 1-403): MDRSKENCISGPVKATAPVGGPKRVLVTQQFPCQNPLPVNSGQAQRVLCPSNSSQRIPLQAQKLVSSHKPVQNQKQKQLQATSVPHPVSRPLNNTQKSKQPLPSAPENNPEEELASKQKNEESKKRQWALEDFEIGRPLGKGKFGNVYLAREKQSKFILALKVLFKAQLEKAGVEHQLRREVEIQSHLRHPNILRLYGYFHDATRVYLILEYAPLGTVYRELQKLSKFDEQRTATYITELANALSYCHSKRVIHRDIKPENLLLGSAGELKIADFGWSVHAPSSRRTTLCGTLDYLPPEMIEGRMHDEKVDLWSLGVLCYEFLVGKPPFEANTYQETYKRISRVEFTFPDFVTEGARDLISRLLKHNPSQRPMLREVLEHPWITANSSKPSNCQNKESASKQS
Description: (§1) Kinase activity of Aurora kinases was measured by phosphocellulose filter binding assay. The full-length human Aurora A carrying His6 tag at the N-terminus (Invitrogen, Carlsbad, Calif.) and the full-length human Aurora B (N-terminal GST fusion) co-expressed and co-purified with the His6-INCENP INBOX, aminoacids 803-918 (Carna BioSciences, Japan) were used as the enzyme in the assays. Tested compounds were diluted in DMSO and pre-incubated with the enzyme and ATP/Mg^2+ mixture for at least 10 minutes. The reaction was started by addition of the Kemptide peptide substrate (LRRASLG) and allowed to proceed for 45 min at room temperature. Each reaction in a final volume of 40 μl contained 50 μM Kemptide, 10 μM [γ-^33P]ATP (1 Ci/mmol) and either 11 nM Aurora A or 1.5 nM Aurora B/INCENP complex in the buffer containing 10 mM MgCl2, 5% DMSO, 20 mM MOPS, pH 7.2, 25 mM β-glycerol phosphate, 5 mM EGTA, 1 mM Na3VO4 and either 0.1 mg/ml of BSA and 1 mM DTT for Aurora A or 0.01% Triton-X100 and 2 mM DTT for Aurora B. The reaction was stopped with 25 μl of 5% H3PO4, and 45 μl of the mixture was transferred into a MultiScreen-PH filterplate (Millipore) pre-washed with 0.85% H3PO4. The filterplate was washed 4 times with 200 μl of 0.85% H3PO4 on a vacuum manifold. Scintillation fluid (50 μl of Ultima Gold™ LLT, PerkinElmer, Waltham, Mass.) was added to each well, and after 1-hr incubation at room temperature the plates were counted on MicroBeta (PerkinElmer, Waltham, Mass.) plate reader. […] Percent inhibition values were calculated based on the counts of the positive and negative controls, and these values were regressed against inhibitor concentration and fit into a four parameter model. From this fit the IC50 values (the inhibitor concentration at which 50% inhibition occurs) were derived as the inflection point on the semi-logarithm inhibition curve.

[2] = tested on: HL-60; test: CellTiter-Glo cell viability assay, HL-60; type: cell-based; settings: Homo sapiens, HL-60; Leukemia; 72 hrs; 50% growth inhibition relative to control; read-out: HL-60 IC50
Source text: (§2) The CellTiter-Glo® Luminescent Cell Viability Assay is a homogeneous method of determining the number of viable cells in culture based on quantitation of the ATP present, which signals the presence of metabolically active cells. The homogeneous assay procedure involves addition of a single reagent directly to cells cultured in serum-supplemented medium. The homogeneous format results in cell lysis and generation of a luminescent signal proportional to the amount of ATP present. The CellTiter-Glo® Assay relies on the properties of a proprietary thermostable luciferase (Ultra-Glo. Recombinant Luciferase), which generates a stable glow-type Luminescent signal. The half-life of the luminescent signal resulting from this reaction is greater than five hours. This extended half-life eliminates the need for reagent injectors and provides flexibility for continuous or batch-mode processing of multiple plates. The unique homogeneous format reduces pipetting errors that may be introduced during the multiple steps required by other ATP-measurement methods.
(§3) 96 Well cell culture plates were seeded with 10^3 mammalian cells (Colo205, HL-60, SW620, HCT116, MCF-7 and MV-411) in 100 μl culture medium. The cells were incubated overnight prior to initiating the assay. Control wells were prepared on a plate containing medium only to obtain a value for background luminescence.
(§4) Compounds to be tested were added to experimental wells and incubated for 72 hrs (Colo205, HL-60, MV-411), 168 hrs (HCT116, SW620) or 240 hrs (MCF-7). Wells were also set up to as vehicle controls with the addition of 0.1% DMSO. At the end of the incubation period, the plates were equilibrated to room temperature for approximately 30 minutes.
(§5) Lyophilized CellTiter-Glo® Substrate and the CellTiter-Glo® Buffer were warmed to room temperature. The CellTiter-Glo® Buffer was mixed with the CellTiter-Glo® Substrate to reconstitute the lyophilized enzyme/substrate mixture. This forms the CellTiter-Glo® Reagent. The contents were mixed by gently vortexing, swirling or by inverting the contents to obtain a homogeneous solution. 100 μl of CellTiter-Glo® Reagent was added to the cell culture medium present in each well. The contents were mixed for 2 minutes on an orbital shaker to induce cell lysis. The plates were allowed to incubate at room temperature for 10 minutes to stabilize luminescent signal. The contents of the 96 well cell culture plate were then transferred to a white 96 well Optiplate (Perkin Elmer). The luminescence was recorded on Wallac 1420 VICTOR^2 V Multilabel Platereader (An integration time of 0.25-1 second per well).
(§6) 10 mM DMSO stock Compounds were serially diluted threefold in DMSO. Subsequent dilutions made into cell culture media prior to addition to cells to maintain the DMSO concentration at or below 0.1% to avoid cell toxicity.
(§7) The IC50s in Table 2 are the concentration at which 50% growth inhibition relative to control occurs.

[3] = tested on: SW620; test: CellTiter-Glo cell viability assay, SW620; type: cell-based; settings: Homo sapiens, SW-620; Colorectal cancer; 168 hrs; 50% growth inhibition relative to control; read-out: SW620 IC50
Source text: as §2, §3, §4, §5, §6, §7

[4] = tested on: Colo205; test: CellTiter-Glo cell viability assay, Colo205; type: cell-based; settings: Homo sapiens, COLO 205; Colorectal cancer; 72 hrs; 50% growth inhibition relative to control; read-out: Colo205 IC50
Source text: as §2, §3, §4, §5, §6, §7

[5] = tested on: MCF-7; test: CellTiter-Glo cell viability assay, MCF-7; type: cell-based; settings: Homo sapiens, MCF7; Breast Cancer; 240 hrs; 50% growth inhibition relative to control; read-out: MCF-7 IC50
Source text: as §2, §3, §4, §5, §6, §7

[6] = biological target: T2, full-length human Aurora B/INCENP complex (Homo sapiens, UniProt Q96GD4); test: Aurora B phosphocellulose filter binding kinase activity assay; type: biochemical; settings: 1.5 nM Aurora B/INCENP complex, 10 μM ATP, 50 μM Kemptide, 45 min; read-out: Aur-B IC50
T2 construct: the full-length human Aurora B (N-terminal GST fusion); GST (N); purchased Carna BioSciences, Japan
Description: as §1

[7] = tested on: MV-411; test: CellTiter-Glo cell viability assay, MV-411; type: cell-based; settings: Homo sapiens, MV4-11; Leukemia; 72 hrs; 50% growth inhibition relative to control; read-out: MV-411 IC50
Source text: as §2, §3, §4, §5, §6, §7

[8] = tested on: HCT116; test: CellTiter-Glo cell viability assay, HCT116; type: cell-based; settings: Homo sapiens, HCT-116; Colorectal cancer; 168 hrs; 50% growth inhibition relative to control; read-out: HCT116 IC50
Source text: as §2, §3, §4, §5, §6, §7

T2 sequence (Q96GD4 whole entry, the tested form may be a part): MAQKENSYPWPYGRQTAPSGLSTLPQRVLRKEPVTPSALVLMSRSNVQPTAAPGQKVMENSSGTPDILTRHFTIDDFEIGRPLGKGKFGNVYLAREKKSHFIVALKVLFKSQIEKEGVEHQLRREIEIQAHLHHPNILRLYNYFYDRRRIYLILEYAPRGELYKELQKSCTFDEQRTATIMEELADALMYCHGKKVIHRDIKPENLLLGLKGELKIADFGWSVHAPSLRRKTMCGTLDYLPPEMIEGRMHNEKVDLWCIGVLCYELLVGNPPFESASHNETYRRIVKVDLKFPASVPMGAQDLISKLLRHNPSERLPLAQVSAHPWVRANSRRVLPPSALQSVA
T2 sequence (Q9NQS7 803-918 partner limits assumed): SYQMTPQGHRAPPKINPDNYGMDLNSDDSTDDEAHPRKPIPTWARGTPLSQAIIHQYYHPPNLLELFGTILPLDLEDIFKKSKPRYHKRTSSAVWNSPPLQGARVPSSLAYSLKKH

SMILES: CN1CCN(C(=O)c2ccc(-c3ccc4c(Nc5cc(CC(=O)Nc6cccc(F)c6)[nH]n5)ncnc4c3)cc2)CC1 [Compound 2, N-(3-fluorophenyl)-2-(3-(7-(4-(4-methylpiperazine-1-carbonyl)phenyl)quinazolin-4-ylamino)-1H-pyrazol-5-yl)acetamide]
- IC50 [1]: 5.07 nM
- IC50 [2]: 1.8 nM
- IC50 [3]: 6.3 nM
- IC50 [4]: 3.98 nM
- IC50 [5]: 8.46 nM
- IC50 [6]: 0.86 nM
- IC50 [7]: 5.2 nM
- IC50 [8]: 3.65 nM

SMILES: O=C(Cc1cc(Nc2ncnc3cc(-c4ccc(C(=O)N5CCN(CCO)CC5)cc4)ccc23)n[nH]1)Nc1cccc(F)c1 [Compound 1, N-(3-fluorophenyl)-2-(3-(7-(4-(4-(2-hydroxyethyl)piperazine-1-carbonyl)phenyl)quinazolin-4-ylamino)-1H-pyrazol-5-yl)acetamide]
- IC50 [1]: 1.93 nM
- IC50 [2]: 1.32 nM
- IC50 [3]: 12 nM
- IC50 [4]: 1.82 nM
- IC50 [5]: 16.9 nM
- IC50 [6]: 0.48 nM
- IC50 [7]: 5.75 nM
- IC50 [8]: 5.32 nM

SMILES: O=C(Cc1cc(Nc2ncnc3cc(-c4ccc(S(=O)(=O)N5CCCC5)cc4)ccc23)n[nH]1)Nc1cccc(F)c1 [Compound 3, N-(3-fluorophenyl)-2-(3-(7-(4-(pyrrolidin-1-ylsulfonyl)phenyl)quinazolin-4-ylamino)-1H-pyrazol-5-yl)acetamide]
- IC50 [1]: 6.04 nM
- IC50 [2]: 1.08 nM
- IC50 [3]: 2.15 nM
- IC50 [4]: 2.26 nM
- IC50 [5]: 5.62 nM
- IC50 [6]: 0.47 nM
- IC50 [7]: 5.9 nM
- IC50 [8]: 4.58 nM

SMILES: O=C(Cc1cc(Nc2ncnc3cc(-c4ccc(S(=O)(=O)N5CC[C@H](F)C5)cc4)ccc23)n[nH]1)Nc1cccc(F)c1 [Compound 5, (S)-N-(3-fluorophenyl)-2-(3-(7-(4-(3-fluoropyrrolidin-1-ylsulfonyl)phenyl)quinazolin-4-ylamino)-1H-pyrazol-5-yl)acetamide]
- IC50 [1]: 7.1 nM
- IC50 [2]: 1.21 nM
- IC50 [3]: 2.17 nM
- IC50 [4]: 3.86 nM
- IC50 [5]: 11.4 nM
- IC50 [6]: 0.56 nM
- IC50 [7]: 6.4 nM
- IC50 [8]: 1.9 nM

SMILES: O=C(Cc1cc(Nc2ncnc3cc(-c4ccc(C(=O)N5CCNCC5)cc4)ccc23)n[nH]1)Nc1cccc(F)c1 [Compound 4, N-(3-fluorophenyl)-2-(3-(7-(4-(piperazine-1-carbonyl)phenyl)quinazolin-4-ylamino)-1H-pyrazol-5-yl)acetamide]
- IC50 [1]: 3.77 nM
- IC50 [2]: 1.32 nM
- IC50 [3]: 7.81 nM
- IC50 [4]: 2.11 nM
- IC50 [5]: 7.7 nM
- IC50 [6]: 0.71 nM
- IC50 [7]: 6.05 nM
- IC50 [8]: 5.66 nM

SMILES: O=C(Cc1cc(Nc2ncnc3cc(-c4ccc(S(=O)(=O)N5CC[C@@H](F)C5)cc4)ccc23)n[nH]1)Nc1cccc(F)c1 [Compound 6, (R)-N-(3-fluorophenyl)-2-(3-(7-(4-(3-fluoropyrrolidin-1-ylsulfonyl)phenyl)quinazolin-4-ylamino)-1H-pyrazol-5-yl)acetamide]
- IC50 [1]: 6.29 nM
- IC50 [2]: 2.26 nM
- IC50 [3]: 2.4 nM
- IC50 [4]: 3.9 nM
- IC50 [5]: 7.8 nM
- IC50 [6]: 0.63 nM
- IC50 [7]: 5.79 nM
- IC50 [8]: 1.9 nM
